One experiment has as its target D(3) dopamine receptor (Homo sapiens, UniProt P35462).
The target in another experiment is Prothrombin (Homo sapiens, UniProt P00734). Format: functional.
The target of experiment [1] is T1, Histamine H3 receptor (Homo sapiens, UniProt Q9Y5N1).
For experiment [2], the target named is T2, 5-hydroxytryptamine receptor 1A (Homo sapiens, UniProt P08908).
T2 sequence (P08908 whole entry): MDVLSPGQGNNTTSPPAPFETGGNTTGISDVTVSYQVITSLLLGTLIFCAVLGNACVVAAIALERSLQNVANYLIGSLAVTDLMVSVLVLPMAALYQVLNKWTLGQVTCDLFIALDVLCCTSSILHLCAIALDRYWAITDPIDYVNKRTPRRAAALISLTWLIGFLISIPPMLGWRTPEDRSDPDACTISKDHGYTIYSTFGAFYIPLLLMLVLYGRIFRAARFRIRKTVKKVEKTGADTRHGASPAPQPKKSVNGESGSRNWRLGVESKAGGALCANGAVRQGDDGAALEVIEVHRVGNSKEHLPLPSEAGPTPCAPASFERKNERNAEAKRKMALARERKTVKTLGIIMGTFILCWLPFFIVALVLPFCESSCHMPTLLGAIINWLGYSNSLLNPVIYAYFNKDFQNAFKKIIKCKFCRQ

Experiment [3] has as its target 5-hydroxytryptamine receptor 2B (Homo sapiens, UniProt P41595). Format: functional, cell-based.
Experiment [4] has as its target cGMP-inhibited 3',5'-cyclic phosphodiesterase 3A (Homo sapiens, UniProt Q14432). Format: functional.
Experiment [5] has as its target 3',5'-cyclic-AMP phosphodiesterase 4A (Homo sapiens, UniProt P27815). Format: functional.
Experiment [6] has as its target Sodium-dependent dopamine transporter (Homo sapiens, UniProt Q01959).
Experiment [7] deals with T3, Thromboxane A2 receptor (Homo sapiens, UniProt P21731).
T3 sequence (P21731 whole entry): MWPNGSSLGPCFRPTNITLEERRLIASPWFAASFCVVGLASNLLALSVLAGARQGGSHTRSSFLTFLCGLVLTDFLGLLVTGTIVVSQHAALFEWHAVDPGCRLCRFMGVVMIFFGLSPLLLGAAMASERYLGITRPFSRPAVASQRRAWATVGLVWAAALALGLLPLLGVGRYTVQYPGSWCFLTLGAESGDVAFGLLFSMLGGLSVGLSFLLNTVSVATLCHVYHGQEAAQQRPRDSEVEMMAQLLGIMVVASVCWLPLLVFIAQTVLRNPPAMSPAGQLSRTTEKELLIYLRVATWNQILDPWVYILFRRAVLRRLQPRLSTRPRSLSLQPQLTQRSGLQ
Format: functional, cell-based.

The target of experiment [8] is T3, Thromboxane A2 receptor. Format: functional, cell-based. The source holds these as a separate data set.
In experiment [9] the target is T4, D(1A) dopamine receptor (Homo sapiens, UniProt P21728).
T4 sequence (P21728 whole entry): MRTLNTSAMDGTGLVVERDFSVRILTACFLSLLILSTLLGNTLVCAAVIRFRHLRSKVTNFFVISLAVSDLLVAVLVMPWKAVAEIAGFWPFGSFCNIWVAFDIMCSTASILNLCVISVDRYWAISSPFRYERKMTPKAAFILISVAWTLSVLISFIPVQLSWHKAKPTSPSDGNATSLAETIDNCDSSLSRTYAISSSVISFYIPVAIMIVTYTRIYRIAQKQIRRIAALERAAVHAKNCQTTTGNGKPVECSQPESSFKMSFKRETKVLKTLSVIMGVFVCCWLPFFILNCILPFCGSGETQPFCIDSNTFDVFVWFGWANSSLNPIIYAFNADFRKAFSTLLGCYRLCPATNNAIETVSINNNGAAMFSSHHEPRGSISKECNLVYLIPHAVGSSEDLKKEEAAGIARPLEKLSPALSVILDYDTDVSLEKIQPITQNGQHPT
Experiment [10] concerns the target Gamma-aminobutyric acid receptor subunit alpha-1 (Rattus norvegicus, UniProt P62813).
The target of experiment [11] is T5, Type-1 angiotensin II receptor (Homo sapiens, UniProt P30556).
T5 sequence (P30556 whole entry): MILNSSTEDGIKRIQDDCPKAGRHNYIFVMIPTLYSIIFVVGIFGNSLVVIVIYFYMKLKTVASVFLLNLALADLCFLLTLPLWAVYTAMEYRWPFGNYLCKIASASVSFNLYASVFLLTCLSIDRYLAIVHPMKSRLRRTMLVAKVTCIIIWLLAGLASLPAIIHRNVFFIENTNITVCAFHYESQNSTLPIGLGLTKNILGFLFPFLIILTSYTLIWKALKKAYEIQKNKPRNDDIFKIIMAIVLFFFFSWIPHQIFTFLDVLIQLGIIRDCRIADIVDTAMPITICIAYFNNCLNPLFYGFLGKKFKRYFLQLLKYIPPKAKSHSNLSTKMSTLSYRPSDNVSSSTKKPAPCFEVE

Experiment [12] has as its target T4, D(1A) dopamine receptor. Format: functional, cell-based.
The target of the next experiment is T6, Endothelin-1 receptor (Homo sapiens, UniProt P25101).
T6 sequence (P25101 whole entry): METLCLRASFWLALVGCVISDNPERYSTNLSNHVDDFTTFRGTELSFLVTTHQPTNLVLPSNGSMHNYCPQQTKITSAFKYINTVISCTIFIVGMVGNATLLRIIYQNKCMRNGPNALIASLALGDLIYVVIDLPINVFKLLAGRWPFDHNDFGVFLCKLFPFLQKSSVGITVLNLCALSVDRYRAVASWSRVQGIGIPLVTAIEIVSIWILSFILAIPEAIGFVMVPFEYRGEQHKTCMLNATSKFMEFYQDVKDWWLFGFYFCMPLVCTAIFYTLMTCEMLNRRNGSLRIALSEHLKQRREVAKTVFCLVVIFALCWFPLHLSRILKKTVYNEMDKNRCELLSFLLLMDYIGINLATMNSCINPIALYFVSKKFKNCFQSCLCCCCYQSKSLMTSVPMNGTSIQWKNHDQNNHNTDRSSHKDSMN

The target in experiment [13] is Growth hormone secretagogue receptor type 1 (Homo sapiens, UniProt Q92847).
Growth hormone secretagogue receptor type 1, sequence (Q92847 whole entry): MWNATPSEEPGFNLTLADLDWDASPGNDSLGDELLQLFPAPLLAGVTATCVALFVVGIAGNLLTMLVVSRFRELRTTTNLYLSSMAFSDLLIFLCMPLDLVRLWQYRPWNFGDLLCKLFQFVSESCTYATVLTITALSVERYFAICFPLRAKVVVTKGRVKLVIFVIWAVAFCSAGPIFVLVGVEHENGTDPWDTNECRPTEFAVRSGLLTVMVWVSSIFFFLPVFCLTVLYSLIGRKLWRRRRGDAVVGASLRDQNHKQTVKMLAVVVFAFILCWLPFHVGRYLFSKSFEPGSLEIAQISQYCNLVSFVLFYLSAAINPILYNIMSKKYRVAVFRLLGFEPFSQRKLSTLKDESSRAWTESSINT
The target in experiment [14] is T1, Histamine H3 receptor. This is another data set of the same source.

Broadly, the AC50 is the midpoint of the concentration-response curve, whichever way the signal moves.
Further: assay procedure not described here.

T1 sequence (Q9Y5N1 whole entry): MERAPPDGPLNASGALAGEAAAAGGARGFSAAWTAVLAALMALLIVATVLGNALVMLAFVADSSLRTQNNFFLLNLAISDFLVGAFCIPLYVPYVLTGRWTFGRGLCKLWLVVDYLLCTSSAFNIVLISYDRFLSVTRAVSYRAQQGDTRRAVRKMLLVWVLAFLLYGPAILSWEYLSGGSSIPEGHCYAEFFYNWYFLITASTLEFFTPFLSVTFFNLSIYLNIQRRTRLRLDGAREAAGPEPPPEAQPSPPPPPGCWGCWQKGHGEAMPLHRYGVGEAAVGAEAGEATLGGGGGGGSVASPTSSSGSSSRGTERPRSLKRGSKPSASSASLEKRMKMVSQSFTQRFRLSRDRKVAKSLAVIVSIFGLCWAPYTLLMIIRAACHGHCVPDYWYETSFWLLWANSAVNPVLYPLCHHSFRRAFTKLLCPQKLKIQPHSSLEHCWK
5-hydroxytryptamine receptor 2B, sequence (P41595 whole entry): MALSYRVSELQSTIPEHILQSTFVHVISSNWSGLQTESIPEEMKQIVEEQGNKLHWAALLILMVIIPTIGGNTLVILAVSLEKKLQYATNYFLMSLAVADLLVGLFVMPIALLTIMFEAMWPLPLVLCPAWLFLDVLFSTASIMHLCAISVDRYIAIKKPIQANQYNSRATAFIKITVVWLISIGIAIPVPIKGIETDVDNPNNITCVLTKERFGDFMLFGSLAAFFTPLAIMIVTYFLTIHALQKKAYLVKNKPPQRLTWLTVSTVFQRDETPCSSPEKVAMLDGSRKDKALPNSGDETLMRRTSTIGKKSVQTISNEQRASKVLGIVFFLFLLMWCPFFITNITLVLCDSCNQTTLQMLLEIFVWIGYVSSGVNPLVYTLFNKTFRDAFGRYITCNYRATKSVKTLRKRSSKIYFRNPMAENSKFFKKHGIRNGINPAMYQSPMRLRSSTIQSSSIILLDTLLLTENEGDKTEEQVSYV
3',5'-cyclic-AMP phosphodiesterase 4A, sequence (P27815 whole entry): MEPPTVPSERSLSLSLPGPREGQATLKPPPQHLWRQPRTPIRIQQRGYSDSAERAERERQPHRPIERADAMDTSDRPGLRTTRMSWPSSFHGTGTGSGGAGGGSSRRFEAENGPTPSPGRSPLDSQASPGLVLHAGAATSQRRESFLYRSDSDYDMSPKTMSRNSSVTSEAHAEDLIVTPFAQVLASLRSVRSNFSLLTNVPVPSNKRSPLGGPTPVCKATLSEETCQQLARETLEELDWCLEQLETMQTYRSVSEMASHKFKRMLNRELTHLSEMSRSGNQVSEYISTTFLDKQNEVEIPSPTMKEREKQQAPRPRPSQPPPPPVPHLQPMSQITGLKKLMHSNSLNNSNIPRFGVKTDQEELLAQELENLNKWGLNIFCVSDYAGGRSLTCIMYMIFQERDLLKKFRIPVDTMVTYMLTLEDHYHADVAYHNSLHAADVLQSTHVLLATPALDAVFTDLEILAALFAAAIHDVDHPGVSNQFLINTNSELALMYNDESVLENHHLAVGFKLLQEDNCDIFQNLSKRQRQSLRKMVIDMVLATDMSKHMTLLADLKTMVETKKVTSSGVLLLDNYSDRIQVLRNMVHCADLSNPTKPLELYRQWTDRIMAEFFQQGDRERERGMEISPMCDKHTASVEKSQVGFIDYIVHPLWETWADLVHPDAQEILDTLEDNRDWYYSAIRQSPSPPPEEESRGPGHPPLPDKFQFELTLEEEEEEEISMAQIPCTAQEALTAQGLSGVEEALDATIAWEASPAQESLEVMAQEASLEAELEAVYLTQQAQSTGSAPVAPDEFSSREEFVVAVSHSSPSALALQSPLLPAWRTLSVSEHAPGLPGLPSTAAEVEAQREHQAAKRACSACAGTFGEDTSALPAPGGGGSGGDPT
cGMP-inhibited 3',5'-cyclic phosphodiesterase 3A, sequence (Q14432 whole entry): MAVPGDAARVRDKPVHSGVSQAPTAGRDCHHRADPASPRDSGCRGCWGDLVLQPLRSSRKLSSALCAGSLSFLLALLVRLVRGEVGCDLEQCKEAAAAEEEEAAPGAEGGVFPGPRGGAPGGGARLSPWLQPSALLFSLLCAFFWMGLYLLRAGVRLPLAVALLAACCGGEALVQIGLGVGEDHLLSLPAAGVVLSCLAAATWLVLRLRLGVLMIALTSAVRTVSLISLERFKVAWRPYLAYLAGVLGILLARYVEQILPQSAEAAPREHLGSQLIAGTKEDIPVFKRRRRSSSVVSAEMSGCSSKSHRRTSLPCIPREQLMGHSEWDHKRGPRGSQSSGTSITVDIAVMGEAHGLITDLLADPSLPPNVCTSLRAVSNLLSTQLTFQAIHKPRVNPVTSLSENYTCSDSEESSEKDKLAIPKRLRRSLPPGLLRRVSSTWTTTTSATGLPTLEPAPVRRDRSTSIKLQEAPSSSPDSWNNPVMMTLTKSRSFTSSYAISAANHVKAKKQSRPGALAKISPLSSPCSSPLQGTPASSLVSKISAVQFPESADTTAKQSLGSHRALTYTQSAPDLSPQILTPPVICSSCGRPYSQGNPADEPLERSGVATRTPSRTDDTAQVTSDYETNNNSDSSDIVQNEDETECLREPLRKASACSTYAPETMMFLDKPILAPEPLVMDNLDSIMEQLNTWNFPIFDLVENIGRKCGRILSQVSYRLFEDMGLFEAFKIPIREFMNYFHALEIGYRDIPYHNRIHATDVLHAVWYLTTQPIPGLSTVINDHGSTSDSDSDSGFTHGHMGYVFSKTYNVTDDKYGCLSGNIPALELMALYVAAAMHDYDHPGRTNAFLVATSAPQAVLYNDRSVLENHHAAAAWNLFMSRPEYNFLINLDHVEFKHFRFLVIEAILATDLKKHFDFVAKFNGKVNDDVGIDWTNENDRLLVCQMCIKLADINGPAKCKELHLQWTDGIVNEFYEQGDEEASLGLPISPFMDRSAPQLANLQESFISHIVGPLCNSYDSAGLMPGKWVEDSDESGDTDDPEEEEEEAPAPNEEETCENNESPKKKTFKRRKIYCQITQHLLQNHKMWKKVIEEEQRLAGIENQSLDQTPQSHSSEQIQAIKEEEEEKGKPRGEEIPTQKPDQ
Sodium-dependent dopamine transporter, sequence (Q01959 whole entry): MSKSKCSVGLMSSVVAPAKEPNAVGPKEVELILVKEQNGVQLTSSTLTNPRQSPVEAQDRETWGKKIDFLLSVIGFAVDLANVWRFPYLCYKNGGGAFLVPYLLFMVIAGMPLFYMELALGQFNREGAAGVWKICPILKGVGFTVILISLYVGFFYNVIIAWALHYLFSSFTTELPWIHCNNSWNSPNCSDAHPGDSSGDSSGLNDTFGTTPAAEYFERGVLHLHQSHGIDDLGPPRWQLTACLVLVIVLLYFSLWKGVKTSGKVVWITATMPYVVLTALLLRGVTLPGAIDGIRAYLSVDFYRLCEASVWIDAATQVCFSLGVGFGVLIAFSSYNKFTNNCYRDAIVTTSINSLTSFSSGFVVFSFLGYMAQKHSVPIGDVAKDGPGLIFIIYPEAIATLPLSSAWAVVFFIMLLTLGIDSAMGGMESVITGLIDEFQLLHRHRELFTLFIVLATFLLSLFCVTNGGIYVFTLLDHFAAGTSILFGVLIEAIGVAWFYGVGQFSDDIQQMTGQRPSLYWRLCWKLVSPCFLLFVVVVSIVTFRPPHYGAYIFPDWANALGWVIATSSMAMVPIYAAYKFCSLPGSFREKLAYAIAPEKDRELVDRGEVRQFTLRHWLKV
D(3) dopamine receptor, sequence (P35462 whole entry): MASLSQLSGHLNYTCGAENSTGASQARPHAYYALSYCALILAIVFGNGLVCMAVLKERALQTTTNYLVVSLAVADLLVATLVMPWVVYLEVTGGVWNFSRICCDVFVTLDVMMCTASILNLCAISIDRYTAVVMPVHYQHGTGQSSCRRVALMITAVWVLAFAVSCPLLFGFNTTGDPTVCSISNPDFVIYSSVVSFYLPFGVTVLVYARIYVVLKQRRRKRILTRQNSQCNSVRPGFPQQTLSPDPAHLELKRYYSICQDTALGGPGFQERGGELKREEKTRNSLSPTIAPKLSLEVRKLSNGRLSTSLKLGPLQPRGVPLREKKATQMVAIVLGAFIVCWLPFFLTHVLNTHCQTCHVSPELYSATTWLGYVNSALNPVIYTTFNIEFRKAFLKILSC

With `CN(C)c1ccc(C(=C2C=CC(=[N+](C)C)C=C2)c2ccc(N(C)C)cc2)cc1` [GENTIAN VIOLET], the AC50 was 1.21 µM at D(3) dopamine receptor; 25.2 µM on Prothrombin; 4.71 µM on Histamine H3 receptor [1]; 4.24 µM in [2]; over 30 µM in experiment [3]; over 30 µM in experiment [4]. The AC50 was 13.2 µM in experiment [5], 3.4 µM in experiment [6], over 30 µM on Thromboxane A2 receptor [7] and 2.03 µM at Thromboxane A2 receptor [8].
For the compound `Nc1ccc(S(N)(=O)=O)cc1` [SULFANILAMIDE], the AC50 (at D(1A) dopamine receptor [9]; at Prothrombin; in [10]; on Histamine H3 receptor [1]; in experiment [2]; in experiment [3]) was over 30 µM each time. Further, the half-maximal activity concentration (AC50) (in experiment [4]; in experiment [5]; in experiment [6]; on Thromboxane A2 receptor [7]; at Thromboxane A2 receptor [8]) was over 30 µM throughout.
For the compound HYDROXOCOBALAMIN, the AC50 (in experiment [11]; on D(1A) dopamine receptor [12]; on Endothelin-1 receptor; in experiment [13]; at Histamine H3 receptor [14]) was over 30 µM in each case.

For the origin of these results see ChEMBL document CHEMBL5291721, “A preclinical secondary pharmacology resource illuminates target-adverse drug reaction associations of marketed drugs” (Nat Commun, 2023).
